Patent US20060002870A1 (priority 2004, published 2006)

Tested on: skin
Test: Clinical study of intensity and tonality of self-tanning with merospheres, empty liposomes and ursolic acid (Chromameter, forearms)
Assay type: in vivo, human
Conditions: added to 3% DHA, 5% pentylene glycol; 5 hours and 24 hours; FIG. 7
Procedure: This clinical study is designed to investigate the intensity and tonality of self-tanning with a formulation containing different combination of merospheres, empty liposomes and ursolic acid. The following materials are tested: A total of […] panelists participate in the study. The panel is divided in seven groups of 7-8 corresponding to the seven test materials. The panelists apply the “control” formulation containing 3% DHA-PG on the right arm and the assigned test material on the other arm. For each panelist exact amounts (800 μl each) of the test materials are dispensed on the forearms and blended in by the panelists. Color measurements are obtained with the Chromameter before treatment and 5 hours and 24 hours. Decrease in reflectance and increase in red coloration and yellow coloration (ΔL*, Δa* and Δb* values) obtained from the Chromameter are calculated as compared to baseline skin color. Total color change ΔE* is calculated for each time point as follows: ΔE*={overscore (V(ΔL*)^2+(Δa*)^2+(Δb)}*)^2 For assessing the tonality, Chroma (ΔC*) is calculated and plotted against reflectance (ΔL* values) within the “Natural Universe of Tan”. This Natural Universe is the range of color of tan obtained by multiple or single exposures to the sun.

C[C@H]1[C@H](C)CC[C@]2(C(=O)O)CC[C@]3(C)C(=CC[C@@H]4[C@@]5(C)CC[C@H](O)C(C)(C)[C@@H]5CC[C@]43C)[C@H]12 [ursolic acid]
Self-tanning effect (ΔE*): neither addition of empty liposomes nor ursolic acid alone changes the self-tanning effect
